pKi: −log10 of the molar value. The source made the active and inactive calls. The rule behind the calls is not given here.
How the values were obtained:
[1] = target: T1, Fatty acid-binding protein, heart (Homo sapiens, UniProt P05413); assay: Displacement of fluorescent 1-anilinonapthalene 8-sulfonic acid from human h-FABP at 10 uM by fluorescence spectrophotometry
Target sequence in this assay (P05413 2-133 limits assumed): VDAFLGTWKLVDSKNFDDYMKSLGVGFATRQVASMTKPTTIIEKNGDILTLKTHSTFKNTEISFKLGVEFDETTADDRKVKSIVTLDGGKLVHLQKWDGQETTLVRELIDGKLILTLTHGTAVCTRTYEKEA

[2] = target: T2, Fatty acid-binding protein, adipocyte (Homo sapiens, UniProt P15090); assay: Displacement of fluorescent 1-anilinonapthalene 8-sulfonic acid from human a-FABP at 10 uM by fluorescence spectrophotometry
Target sequence in this assay (P15090 2-132 limits assumed): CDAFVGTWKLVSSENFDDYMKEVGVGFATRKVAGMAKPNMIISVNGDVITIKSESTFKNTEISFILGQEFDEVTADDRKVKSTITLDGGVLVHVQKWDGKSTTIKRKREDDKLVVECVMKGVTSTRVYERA

[3] = target: T2, Fatty acid-binding protein, adipocyte; assay: Displacement of fluorescent 1-anilinonapthalene 8-sulfonic acid from human a-FABP by fluorescence spectrophotometry
Target sequence in this assay (P15090 whole entry): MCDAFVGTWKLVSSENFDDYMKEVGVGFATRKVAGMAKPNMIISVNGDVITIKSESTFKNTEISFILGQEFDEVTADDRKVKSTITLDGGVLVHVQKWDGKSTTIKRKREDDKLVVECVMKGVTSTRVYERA

[4] = target: T1, Fatty acid-binding protein, heart; assay: Displacement of fluorescent 1-anilinonapthalene 8-sulfonic acid from human h-FABP by fluorescence spectrophotometry
Target sequence in this assay (P05413 whole entry): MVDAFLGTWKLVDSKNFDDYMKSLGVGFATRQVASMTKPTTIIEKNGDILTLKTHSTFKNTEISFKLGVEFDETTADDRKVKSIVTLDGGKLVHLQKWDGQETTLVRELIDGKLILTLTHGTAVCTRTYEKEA

RAW264.7 [5] = assay: Antiinflammatory activity in […] RAW264.7 cells assessed as inhibition of lipopolysaccharide induced MCP-1/CCL2 mRNA expression by PCR; assay type: functional, cell-based
RAW264.7 [6] = assay: Antiinflammatory activity in […] RAW264.7 cells assessed as inhibition of lipopolysaccharide induced TNF-alpha mRNA expression by PCR; assay type: functional, cell-based

Row | SMILES | Activity [1] | Activity [2] | pKi [3] | pKi [4] | inhibition (RAW264.7 [5]) | inhibition (RAW264.7 [6])
1 | CCOC(=O)COc1cccc(-c2ccccc2-n2nc(-c3ccccc3)c(-c3ccccc3)c2CC)c1 | inactive | inactive |  |  |  | 
2 | CCC(Oc1cccc(-c2ccccc2-c2cc(-c3cccs3)n(-c3ccc(Cl)cc3)n2)c1)C(=O)O (configuration not stated) |  |  | 8.22 | 5.43 |  | 
3 | O=C(O)COc1cccc(-c2ccccc2-c2cc(-c3ccccc3)n(-c3ccccc3)n2)c1 |  |  | 7.49 | 5.28 |  | 
4 | O=C(O)COc1cccc(-c2ccccc2-c2cc(-c3ccccc3)n(-c3ccc(Cl)cc3)n2)c1 |  |  | 7.89 | 4.77 |  | 
5 | CC(C)(Oc1cccc(-c2ccccc2-c2cc(-c3cccs3)n(-c3ccc(Cl)cc3)n2)c1)C(=O)O |  |  | > 9.00 | < 4.30 | Dose-dependent effect | Dose-dependent effect
6 | CCc1c(-c2ccccc2)c(-c2ccccc2)nn1-c1ccccc1-c1cccc(OCC(=O)O)c1 |  |  |  |  | Dose-dependent effect | Dose-dependent effect
7 | O=C(O)COc1cccc(-c2ccccc2-c2cc(-c3ccco3)n(-c3ccc(Cl)cc3)n2)c1 |  |  | 8.15 | 5.38 |  | 
8 | CC(Oc1cccc(-c2ccccc2-c2cc(-c3cccs3)n(-c3ccc(Cl)cc3)n2)c1)C(=O)O (configuration not stated) |  |  | > 9.00 | 5.64 | Dose-dependent effect | Dose-dependent effect
9 | O=C(O)COc1cccc(-c2ccccc2-c2cc(-c3cccs3)n(-c3ccc(Cl)cc3)n2)c1 |  |  | 8.30 | 5.37 |  | 
